Reference: ChEMBL document CHEMBL3832082, “DailyMed|setid=a9a12198-b016-42ae-b9dc-d98fead7b79e | CARVEDILOL- carvedilol tablet, film coated|REMEDYREPACK INC”

Assays:
[1] = (§1) Pharmacokinetic parameters for Carvedilol following oral administration of Carvedilol tablets.; assay type: ADME, organism-based; conditions: human, in vivo, dosed compound id 39, dosed compound name CARVEDILOL, tissue Plasma
[2] = tested on: Homo sapiens; test: as §1; assay type: ADME, organism-based; conditions: in vivo, po, dosed compound id 39, dosed compound name CARVEDILOL, tissue Plasma

half-life ([1]; gender male and female, read-out: t1/2(app)): 300 to 540 min | CL/F [1]: 500 to 700 mL/min | bioavailability [1]: 25 to 35% | t1/2(app) ([2]; gender male and female): 7 to 11 h | Vss [2]: 115 L
SMILES: COc1ccccc1OCCNCC(O)COc1cccc2[nH]c3ccccc3c12 (stereo not given) [CARVEDILOL]
